Data on two compounds can be found in ChEMBL document CHEMBL1148941, “A new glucosyl feruloyl quinic acid as a potential marker for roots and rhizomes of goldenseal, Hydrastis canadensis” (2004).

The subject of the test is Staphylococcus aureus. Briefly: Antimicrobial activity against methicillin-resistant Staphylococcus aureus 1126 after 24 hrs. Format: functional.

As for `COc1cc(/C=C/C(=O)O[C@@H]2C[C@](O)(C(=O)O)C[C@@H](O)[C@H]2O)ccc1O[C@@H]1O[C@H](CO)[C@@H](O)[C@H](O)[C@H]1O`, the minimum inhibitory concentration (MIC) (as a rule, the lowest concentration found to suppress growth) was above 1000 µg/mL.
`COc1ccc2cc3[n+](cc2c1OC)CCc1cc2c(cc1-3)OCO2.[Cl-]` [BERBERINE CHLORIDE] yielded an MIC of 60 µg/mL.
